US20100272837A1, “TRADITIONAL CHINESE MEDICINAL COMPOSITIONS FOR TREATING DEPRESSION , FORMULATION THEREOF, METHOD FOR PREPARING THE SAME THEREOF” (HEBEI YILING MEDICINE RESEARCH INSTITUTE CO. LTD., priority 2006, published 2010)
Structures can show the parent of a compound that is named as a salt.

What was measured:
Format in all cases: in vivo, ICR mice
5-HTP model mice = test: Shaking-head behavior induced by 5-hydroxytryptophane (5-HTP) after pargyline; settings: 14 mg/kg body weight; P<0.01
Excerpt: (IV) Effects of Capsules of the Present Invention on Shaking-Head Behavior Induced by 5-hydroxytryptophane (5-HTP) 1. Principle: according to the monoamine hypothesis on the occurrence of depression, the function of antidepressant lies in that it can enhance the functions of the noradrenergic and/or serotonergic nerve. A great variety of antidepressant may enhance the effect of 5-HT by blocking the reuptake of 5-HT. 5-HTP may be used as a precursor of 5-HT, and monoamine oxidase inhibitor—pargyline hydrochloride may inhibit the enzymatic degradation thereof. The characteristic symptom—shaking-head behavior is obvious on mice. The enhancement of shaking-head behavior of mice after administration of the test drug may be used as an evidence to the fact that the inhibition of 5-HT uptaking function is the anti-depression mechanism. 2. Method: ICR male mice (20±1 g) were stochastically divided into seven groups according to the body weight, and each group comprises 12 animals. The animals in the groups of administration with a drug were consecutively administered by gavage for 21 days. […] Except the normal control group, other groups were administered with 20 mg/kg body weight of 5-HTP by intraperitoneal injection 90 min after injection of pargyline; and the times of shaking-head behavior were recorded in the following 10 minutes.

[1] = tested on: mice of reserpine depression model; test: NA, DA and 5-HT in the brain tissue of reserpine mice (fluorophotometry); settings: for 5-HT in the brain tissue of reserpine mice / DA in the brain tissue of reserpine mice / NA in the brain tissue of reserpine mice: gavage 25 days, reserpine 1 mg/kg ip
Protocol: The animals in the groups of administration with a drug were administered by gavage for 25 consecutive days. The normal control group and reserpine control group were administered with isovolumetric distilled water. On the 23rd day of the test, 1 mg/kg body weight of reserpine was ip administered for each group except the normal control group, and each group receiving reserpine was administered once more. At 1 hour after the last administration of reserpine, the heads of mice were cut off and the brain tissues were taken out, frozen with dry ice and preserved at −20□. The content of noradrenaline (NA), dopamine (DA) and 5-hydroxytryptamine (5-HT) in the cerebellar tissue homogenate was measured respectively by means of fluorophotometry.
(§1) At the end of the test, the heads of mice were rapidly cut off and the brain tissues were immediately taken out, promptly frozen with dry ice and moved into a refrigerator having a temperature of −20□. The tissue was defreezed before homogenization. The cerebellum, medulla oblongata and olfactory bulb were removed, and then 300 mg brain tissue was weighed with a analytical balance. Then 10 times amount by volume of acidic n-butanol (prepared by saturating 100 ml re-steamed n-butanol with NaCl, and mixing with 0.85 ml strong hydrochloric acid) were added into the brain tissue for homogenization.
(§2) The brain tissue homogenate was centrifugated (2,000 rpm) for 5 min. Then 2.5 ml supernatant was taken out and placed in centrifuge tube with a plug containing 1 ml 0.1N HC1 and 5 ml n-heptane. The centrifuge tube was placed on the KS vibrator, oscillated for 5 min and centrifugated (2,500 rpm) for 5 min. 6 to ml upper organic phase was placed into the tube having a plug and containing 0.6 ml 0.033 M NaHCO3 so as to extract 5-HIAA. Then 0.5 ml and 0.4 ml were respectively taken out from the lower aqueous phase, wherein the former was used to measure NA and DA, and the latter was used to measure 5-HT.
(§3) Internal standard tube treatment: 9 ml of the acidic n-butanol homogenate was averagely divided into 3 tubes, to two of them, 40 μl mixed standard solution (respectively containing 5 μg/ml standard substances of NA, DA and 5-HT) was added.

[2] = tested on: mice of reserpine depression model; test: Eyelids closing (ptosis) caused by reserpine; settings: for Number of animals which close the eyelids at 1 h after the administration, ± (semi-open eyelids) / Number of animals which close the eyelids at 1 h after the administration, − (open eyelids) / Number of animals which close the eyelids at 1 h after the administration, □ (close eyelids) / Number of animals which close the eyelids at 2 h after the administration, ± (semi-open eyelids) / Number of animals which close the eyelids at 2 h after the administration, − (open eyelids) / Number of animals which close the eyelids at 2 h after the administration, □ (close eyelids) / Number of animals which close the eyelids at 6 h after the administration, ± (semi-open eyelids) / Number of animals which close the eyelids at 6 h after the administration, − (open eyelids) / Number of animals which close the eyelids at 6 h after the administration, □ (close eyelids): gavage 22 days, reserpine 2 mg/kg ip, 15 animals; for effect on reserpine-induced ptosis (in words): P<0.01
Protocol: (§4) Method: ICR male mice (SPF-grade, having a body weight of 17-20 g) were stochastically divided into seven groups according to the body weight, and the administration dosages can be found in Table 1. The animals in the groups of administration with a drug were administered by gavage for 22 consecutive days. The normal control group and the reserpine control group were administered by gavage with isovolumetric distilled water (0.2 ml/10 g body weight). 2 mg/kg body weight of reserpine was administered by intraperitoneal injection on the 22nd day. After 1 h, 2 h and 6 h of injection of reserpine, animals were placed on a bracket and under observation for 15 s to record the number of animals that closed the eyelids (wherein “−” represents open eyelids; “±” represents semi-open eyelids; and “+” represents close eyelids). […] At 2 h, 4 h, and 6 h after the administration of reserpine, animals were placed at the center of a piece of circular white paper with a diameter of 7.5 cm and under observation for 15 s to record the number of animals that still remained within the circle in 15 s.

[3] = tested on: mice of reserpine depression model; test: Body temperature of mice treated with reserpine; settings: for Body temperature, 6 h after making models: rectal temperature; for effect on fall in body temperature caused by reserpine (in words): P<0.01
Protocol: Method: ICR male mice (SPF-grade, having a body weight of 18-22 g) were stochastically divided into seven groups according to the body weight, and the dosages administrated are shown in Table 7. The animals in the groups of administration with a drug were administered for 22 consecutive days, and the basal body temperature (rectal temperature) of the animals was measured before administration on the 22nd day. […] The difference values of body temperature before and after administration and the difference values of their own body temperatures were calculated so as to conduct the statistical comparison by single factor analysis of variance (H. G Vogel & W. H. Vogel, Drug Discovery and Evaluation […]Guidance for Pharmacological Assays, translated by D U Guanhua et al, [M] Beijing: Science Press, 2001.409,412). The results can be found in Tables 7 and 8.

[4] = tested on: mice of reserpine depression model; test: “Excircle” behaviour (akinesia) of mice treated with reserpine; settings: for Number of animals that have excircle behaviors at 2 h, Excircle (+) / Number of animals that have excircle behaviors at 2 h, Within circle (□) / Number of animals that have excircle behaviors at 4 h, Excircle (+) / Number of animals that have excircle behaviors at 4 h, Within circle (□) / Number of animals that have excircle behaviors at 6 h, Excircle (+) / Number of animals that have excircle behaviors at 6 h, Within circle (□): gavage 22 days, reserpine 2 mg/kg ip, 15 animals; for effect on “excircle” rate of reserpine mice (in words): P<0.05 or P<0.01
Protocol: as §4

normal mice [5] = test: NA, DA and 5-HT in the brain tissue of normal mice (fluorophotometry); settings: for 5-HT in the brain tissue of normal mice / DA in the brain tissue of normal mice / NA in the brain tissue of normal mice: gavage 25 days, 80 min after final administration; for effect on 5-HT in brain tissue of normal mice (in words) / effect on NA and DA in brain tissue of normal mice (in words): positive control, P<0.01
Protocol: Method: ICR male mice; and the groups and administration doses can be found in Table 10. The animals in the groups of administration with a drug were administered by gavage for 25 consecutive days. At 80 min after the final administration, the heads of mice were cut off and the brain tissues were taken out, frozen with dry ice and preserved at −20□. The content of noradrenaline (NA), dopamine (DA) and 5-hydroxytryptamine (5-HT) in the whole brain homogenate without cerebellum was measured respectively by means of the fluorophotometry^[2].
as §1, §2, §3
(3) Measurement: The fluorophotometry was conducted on NA, DA and 5-HT (KUANG Peigen, ZHOU Xinfu and XU Bo, Extraction of Monoamine Neurotransmitters in Brain Tissue and Measurement of the Neurotransmitters by Means of Fluorophotometry, Academic Journal of PLA Postgraduate Medical School, 1982, 3(2) 181-185).

[6] = tested on: mice given sodium pentobarbital; test: Rate of falling asleep caused by intraperitoneal sodium pentobarbital; settings: 0.33 g/kg body weight, gavage 7 days; sodium pentobarbital 35 mg/kg ip; 11 animals
Protocol: III. […] Method: ICR mice having a body weight of 18-22 g, half male and half female, were randomly divided into five groups according to the body weight (see Table 14 for details). The animals in the groups of administration with a drug were consecutively administered for 7 days by gavage. Mice were weighed before the last administration, and administered by intraperitoneal injection with 35 mg/kg body weight sodium pentobarbital at 1 h after the last administration. The number of animals falling asleep was recorded.

normal mice [7] = test: Analgetic effects on normal mice (hot plate method); settings: 0.33 g/kg body weight, gavage 3 days; hot plate 56±0.5
Protocol: ICR female mice having a body weight of 18-22 g were stochastically divided into six groups according to the body weight. Before test, the temperature of the aqueous thermostat was controlled at 56±0.5[…]. One mouse was placed on the hot plate each time, and the time of licking postpedes was defined as the pain threshold of said mouse. […] The normal pain thresholds were measured again. The average value of two normal pain thresholds was used as the pain threshold of the mouse before administration. […] There were 22 mice in the normal control group, and there were 11 mice in each of other groups.

mice given acetic acid = test: Stretching caused by intraperitoneal acetic acid (stretching method); settings: 0.33 g/kg body weight, gavage 3 days; 0.6% glacial acetic acid ip; during 15 minutes
Excerpt: Method: ICR mice having a body weight of 18-22 g, half male and half female, were randomly divided into five groups according to the body weight, including the group of 5 g/kg body weight capsules of the present invention, the group of 2.5 g/kg body weight capsules of the present invention, the group of 1.25 g/kg body weight capsules of the present invention, the aspirin group (0.33 g/kg body weigh), and the normal control group (administered with isovolumetric normal saline). There were 19 mice in the normal control group, and there were 10-11 mice in each of other groups. The animals in the groups of administration with a drug were consecutively administered for 3 days by gavage. Except the normal control group, each mouse in other groups was administered by intraperitoneal injection with 0.1 ml/10 g body weight 0.6% glacial acetic acid at 1 h after the final administration. Then the times of stretching caused by glacial acetic acid during 15 minutes after injection were recorded.

[8] = 0.01 g/kg body weight, 5 animals
[9] = 0.014 g/kg body weight, 22 days, reserpine 2 mg/kg ip
[10] = 0.01 g/kg body weight per Table 10
[11] = 0.050 g/kg body weight, 8 animals
[12] = 0.050 g/kg body weight, 22 days, reserpine 2 mg/kg ip
[13] = 0.05 g/kg body weight per Table 10

For CNCCC(Oc1ccc(C(F)(F)F)cc1)c1ccccc1 (centres unmarked) [Fluose fine hydrochloride, Fluoxetine Hydrochloride], the “effect on 5-HTP-induced shaking-head behavior (in words)” value (5-HTP model mice) was “notably increase the times of 5-HTP-induced shaking-head behavior”, the “5-HT in the brain tissue of reserpine mice” value [1, 8] was 707.25 ± 115.94 ng/g and the “DA in the brain tissue of reserpine mice” value [1, 8] was 1967.20 ± 562.57 ng/g. The “NA in the brain tissue of reserpine mice” value [1, 8] was 1326.48 ± 670.50 ng/g, the “Number of animals which close the eyelids at 1 h after the administration, ± (semi-open eyelids)” value ([2]; 0.014 g/kg body weight) was 8 and the “Number of animals which close the eyelids at 1 h after the administration, − (open eyelids)” value ([2]; 0.014 g/kg body weight) was 7. The “Number of animals which close the eyelids at 1 h after the administration, □ (close eyelids)” value ([2]; 0.014 g/kg body weight) was 0, the “Number of animals which close the eyelids at 2 h after the administration, ± (semi-open eyelids)” value ([2]; 0.014 g/kg body weight) was 6 and the “Number of animals which close the eyelids at 2 h after the administration, − (open eyelids)” value ([2]; 0.014 g/kg body weight) was 5. The “Number of animals which close the eyelids at 2 h after the administration, □ (close eyelids)” value ([2]; 0.014 g/kg body weight) was 4, the “Number of animals which close the eyelids at 6 h after the administration, ± (semi-open eyelids)” value ([2]; 0.014 g/kg body weight) was 11 and the “Number of animals which close the eyelids at 6 h after the administration, − (open eyelids)” value ([2]; 0.014 g/kg body weight) was 2. For the same compound, the “Number of animals which close the eyelids at 6 h after the administration, □ (close eyelids)” value ([2]; 0.014 g/kg body weight) was 2, the “effect on reserpine-induced ptosis (in words)” value ([2]; 14 mg/kg body weight) was “antagonistic against reserpine-induced ptosis” and the “Body temperature difference, 6 h after making models” value [3, 9] was 2.66 ± 1.11 □. The “Body temperature difference, 24 h after making models” value [3, 9] was 2.27 ± 1.00 □, the “Body temperature, 6 h after making models” value [3, 9] was 35.0 ± 0.87 □ and the “effect on fall in body temperature caused by reserpine (in words)” value ([3]; 14 mg/kg body weight) was “notably antagonize the fall in body temperature”. The “Number of animals that have excircle behaviors at 2 h, Excircle (+)” value ([4]; 0.014 g/kg body weight) was 15, the “Number of animals that have excircle behaviors at 2 h, Within circle (□)” value ([4]; 0.014 g/kg body weight) was 0 and the “Number of animals that have excircle behaviors at 4 h, Excircle (+)” value ([4]; 0.014 g/kg body weight) was 15. For the same compound, the “Number of animals that have excircle behaviors at 4 h, Within circle (□)” value ([4]; 0.014 g/kg body weight) was 0, the “Number of animals that have excircle behaviors at 6 h, Excircle (+)” value ([4]; 0.014 g/kg body weight) was 14 and the “Number of animals that have excircle behaviors at 6 h, Within circle (□)” value ([4]; 0.014 g/kg body weight) was 1. The “effect on “excircle” rate of reserpine mice (in words)” value ([4]; 14 mg/kg body weight) was “notably increase the “excircle” rate”, the “5-HT in the brain tissue of normal mice” value (normal mice [5]; 0.01 g/kg body weight) was 841.85 ng/g and the “DA in the brain tissue of normal mice” value (normal mice [5]; 0.01 g/kg body weight) was 1432.52 ± 395.77 ng/g. For the same compound, the “NA in the brain tissue of normal mice” value (normal mice [5]; 0.01 g/kg body weight) was 896.46 ng/g, the “effect on 5-HT in brain tissue of normal mice (in words)” value (normal mice [5]; [10]) was “notably increase the level of 5-HT” and the “effect on NA and DA in brain tissue of normal mice (in words)” value (normal mice [5]; [10]) was “increase the level of NA and DA”.
In the case of CC(=O)Oc1ccccc1C(=O)O [Aspirin], the “Number of animals falling asleep, Falling asleep” value [6] is reported as 5, the “Number of animals falling asleep, Not falling asleep” value [6] is reported as 6 and the “Pain threshold, 1 h after admi.” value (normal mice [7]) is reported as 18.27 ± 12.52 S. For the same compound, the “Pain threshold, 3 h after admi.” value (normal mice [7]) was 15.27 ± 2.57 S, the “Pain threshold, 5 h after admi.” value (normal mice [7]) was 16.09 ± 4.70 S and the Stretching times (mice given acetic acid) was 12.00 ± 9.20.
In the case of CN(C)CCC=C1c2ccccc2CCc2ccccc21 [amitriptyline, Amitriptyline Hydrochloride], the “effect on NA and DA in brain tissue of reserpine mice (in words)” value ([1]; 50 mg/kg body weight) is reported as “notably enhance the level of NA and DA”, the “5-HT in the brain tissue of reserpine mice” value [1, 11] is reported as 557.57 ± 174.75 ng/g and the “DA in the brain tissue of reserpine mice” value [1, 11] is reported as 1806.61 ± 275.37 ng/g. The “NA in the brain tissue of reserpine mice” value [1, 11] was 1023.46 ± 619.56 ng/g, the “Number of animals which close the eyelids at 1 h after the administration, ± (semi-open eyelids)” value ([2]; 0.050 g/kg body weight) was 10 and the “Number of animals which close the eyelids at 1 h after the administration, − (open eyelids)” value ([2]; 0.050 g/kg body weight) was 4. For the same compound, the “Number of animals which close the eyelids at 1 h after the administration, □ (close eyelids)” value ([2]; 0.050 g/kg body weight) was 1, the “Number of animals which close the eyelids at 2 h after the administration, ± (semi-open eyelids)” value ([2]; 0.050 g/kg body weight) was 11 and the “Number of animals which close the eyelids at 2 h after the administration, − (open eyelids)” value ([2]; 0.050 g/kg body weight) was 2. The “Number of animals which close the eyelids at 2 h after the administration, □ (close eyelids)” value ([2]; 0.050 g/kg body weight) was 2, the “Number of animals which close the eyelids at 6 h after the administration, ± (semi-open eyelids)” value ([2]; 0.050 g/kg body weight) was 12 and the “Number of animals which close the eyelids at 6 h after the administration, − (open eyelids)” value ([2]; 0.050 g/kg body weight) was 0. The “Number of animals which close the eyelids at 6 h after the administration, □ (close eyelids)” value ([2]; 0.050 g/kg body weight) was 3, the “effect on reserpine-induced ptosis (in words)” value ([2]; 50 mg/kg body weight) was “antagonistic against reserpine-induced ptosis” and the “Body temperature difference, 6 h after making models” value [3, 12] was 2.38 ± 1.30 □. For the same compound, the “Body temperature, 6 h after making models” value [3, 12] was 34.36 ± 1.12 □, the “effect on fall in body temperature caused by reserpine (in words)” value ([3]; 50 mg/kg body weight) was “notably antagonize the fall in body temperature” and the “Number of animals that have excircle behaviors at 2 h, Excircle (+)” value ([4]; 0.050 g/kg body weight) was 15. The “Number of animals that have excircle behaviors at 2 h, Within circle (□)” value ([4]; 0.050 g/kg body weight) was 0, the “Number of animals that have excircle behaviors at 4 h, Excircle (+)” value ([4]; 0.050 g/kg body weight) was 13 and the “Number of animals that have excircle behaviors at 4 h, Within circle (□)” value ([4]; 0.050 g/kg body weight) was 2. For the same compound, the “Number of animals that have excircle behaviors at 6 h, Excircle (+)” value ([4]; 0.050 g/kg body weight) was 13, the “Number of animals that have excircle behaviors at 6 h, Within circle (□)” value ([4]; 0.050 g/kg body weight) was 2 and the “effect on “excircle” rate of reserpine mice (in words)” value ([4]; 50 mg/kg body weight) was “notably increase the “excircle” rate”. The “5-HT in the brain tissue of normal mice” value (normal mice [5]; 0.05 g/kg body weight) was 1015.17 ng/g, the “DA in the brain tissue of normal mice” value (normal mice [5]; 0.05 g/kg body weight) was 1519.29 ± 373.72 ng/g and the “NA in the brain tissue of normal mice” value (normal mice [5]; 0.05 g/kg body weight) was 803.54 ng/g. The “effect on 5-HT in brain tissue of normal mice (in words)” value (normal mice [5]; [13]) was “notably increase the level of 5-HT” and the “effect on NA and DA in brain tissue of normal mice (in words)” value (normal mice [5]; [13]) was “increase the level of NA and DA”.
